In US11034648B2, “Cystobactamide derivatives” (priority 2017, dated 2021):
≈ marks a conversion by molar mass, not a printed value.

Tests used:
Type in all cases: cell-based
[1] = test system: E. coli ΔtolC; experiment: microbe, parasite or virus in culture; details: Escherichia coli, 16 h, read-out: MIC E. coli ΔtolC, small panel, Tables 1a/1b; no visual growth after approx. 16 h
Procedure, shortened: (§1)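 Inoculum: 10^4-10^6 cfu/mL from overnight culture. Medium: cation-adjusted Müller-Hinton broth. Incubation: approx. 16 h, 30-37° C. Read-out: visual, MIC at no growth.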

[2] = test system: E. coli WT-3 [gyrA(S83L,D87G)]; experiment: microbe, parasite or virus in culture; details: Escherichia coli, read-out: MIC E. coli WT-3 [gyrA(S83L,D87G)]
Procedure, shortened: as §1

[3] = test system: P. aeruginosa ΔmexAB; experiment: microbe, parasite or virus in culture; details: Pseudomonas aeruginosa, 16 h, read-out: MIC P. aeruginosa ΔmexAB, efflux-deficient strain; small panel, Tables 1a/1b
Procedure, shortened: as §1

[4] = test system: E. faecalis ATCC-29212; experiment: MIC, microbroth dilution susceptibility assay; details: Enterococcus faecalis, ATCC29212; large panel, Table 2a; TSB
Procedure, shortened: as §1

[5] = test system: S. aureus ATCC-29213; experiment: MIC, microbroth dilution susceptibility assay; details: Staphylococcus aureus, ATCC29213; large panel, Table 2a
Procedure, shortened: as §1

[6] = test system: P. vulgaris DSM-2140; experiment: MIC, microbroth dilution susceptibility assay; details: Proteus vulgaris, DSM2140; large panel, Table 2a
Procedure, shortened: as §1

[7] = test system: S. pneumoniae DSM-20566; experiment: MIC, microbroth dilution susceptibility assay; details: Streptococcus pneumoniae, DSM20566; large panel, Table 2a; TSB
Procedure, shortened: as §1

[8] = test system: C. freundii DSM-30039; experiment: MIC, microbroth dilution susceptibility assay; details: Citrobacter freundii, DSM30039; large panel, Table 2a
Procedure, shortened: as §1

[9] = test system: E. coli WT; experiment: MIC, microbroth dilution susceptibility assay; details: Escherichia coli
Procedure, shortened: as §1

[10] = test system: S. epidermidis DSM-28765; experiment: MIC, microbroth dilution susceptibility assay; details: Staphylococcus epidermidis, DSM28765; large panel, Table 2a
Procedure, shortened: as §1

[11] = test system: E. coli WT DSM-1116; experiment: MIC, microbroth dilution susceptibility assay; details: Escherichia coli, DSM1116; small panel, Tables 1a/1b; no visual growth after approx. 16 h; read-out: MIC E. coli WT DSM-1116
Procedure, shortened: as §1

[12] = test system: P. mirabilis DSM-2140; experiment: MIC, microbroth dilution susceptibility assay; details: Proteus mirabilis, DSM2140; large panel, Table 2a
Procedure, shortened: as §1

[13] = test system: A. baumannii DSM-30008; experiment: MIC, microbroth dilution susceptibility assay; details: Acinetobacter baumannii, DSM30008; large panel, Table 2a
Procedure, shortened: as §1

[14] = test system: K. pneumoniae DSM-30104; experiment: MIC, microbroth dilution susceptibility assay; details: Klebsiella pneumoniae, DSM30104; large panel, Table 2a
Procedure, shortened: as §1

[15] = test system: P. aeruginosa WT PA14; experiment: MIC, microbroth dilution susceptibility assay; details: Pseudomonas aeruginosa, PA14, small panel, Tables 1a/1b; read-out: MIC P. aeruginosa WT PA14
Procedure, shortened: as §1

[16] = test system: P. aeruginosa DSM-24600; experiment: MIC, microbroth dilution susceptibility assay; details: Pseudomonas aeruginosa, DSM24600; large panel, Table 2a
Procedure, shortened: as §1

[17] = test system: S. marcescens DSM-30121; experiment: MIC, microbroth dilution susceptibility assay; details: Serratia marcescens, DSM30121; large panel, Table 2a
Procedure, shortened: as §1

[18] = test system: E. cloacae DSM-30054; experiment: MIC, microbroth dilution susceptibility assay; details: Enterobacter cloacae, DSM30054; large panel, Table 2a
Procedure, shortened: as §1

[19] = test system: P. aeruginosa DSM-46316; experiment: MIC, microbroth dilution susceptibility assay; details: Pseudomonas aeruginosa, DSM46316; large panel, Table 2a
Procedure, shortened: as §1

[20] = test system: S. aureus Newman; experiment: MIC, microbroth dilution susceptibility assay; details: Staphylococcus aureus, NEWMAN; small panel, Tables 1a/1b; read-out: MIC S. aureus Newman
Procedure, shortened: as §1

[21] = test system: E. aerogenes DSM-30053; experiment: MIC, microbroth dilution susceptibility assay; details: Klebsiella aerogenes, DSM30053; large panel, Table 2a
Procedure, shortened: as §1

[22] = test system: K. pneumoniae; experiment: MIC, microbroth dilution susceptibility assay (Table 2b); details: Klebsiella pneumoniae, larger panel
Protocol: (§2) Cystobactamid derivatives synthesized were tested against relevant Gram negative and positive bacteria of clinical interest. Experimental procedures used for the biological characterization of the compounds are the same as previously described in WO 2016/082934.
(§3) Bacterial strains used in susceptibility assays (minimum inhibitory concentration, MIC) were either part of our internal strain collection or purchased from the German Collection of Microorganisms and Cell Cultures (Deutsche Sammlung von Mikroorganismen und Zellkulturen, DSMZ) and the American Type Culture Collection (ATCC). The susceptible E. coli strain (WT) and fluoroquinolone-resistant mutants E. coli WT-3 and WT-III were kindly provided by Prof Dr. P. Heisig, Pharmaceutical Biology and Microbiology, University of Hamburg, Germany. The efflux-deficient strain P. aeruginosa ΔmexAB was kindly provided by Prof Dr. S. Häußler, Institute for Molecular Bacteriology, TWINCORE, Hannover, Germany. All compounds were prepared as DMSO stocks and MIC values were determined in standard microbroth dilution assays in 96-well MTPs as described in Baumann et al., Angew Chem Int Ed Engl. 2014; 53(52):14605-9. In brief, overnight cultures of bacteria were diluted in either tryptic soy broth (TSB: 1.7% peptone casein, 0.3% peptone soymeal, 0.25% glucose, 0.5% NaCl, 0.25% K2HPO4; pH 7.3; S. pneumoniae and E. faecalis) or cation-adjusted Müller-Hinton Broth (BBL™, BD; all other bacteria) and adjusted to 10^4-10^6 cfu/mL. Bacteria were grown in the presence of the derivatives in serial dilution for approx. 16 h at 30-37° C. MIC values were determined and were defined as the antibiotic concentration at which no visual growth of bacteria was observed.

[23] = test system: S. marcescens; experiment: as above; details: Serratia marcescens, larger panel
Protocol: as §2, §3

[24] = test system: E. cloacae; experiment: as above; details: Enterobacter cloacae, larger panel
Protocol: as §2, §3

[25] = test system: A. baumannii; experiment: as above; details: Acinetobacter baumannii, larger panel
Protocol: as §2, §3

[26] = test system: C. freundii; experiment: as above; details: Citrobacter freundii, larger panel
Protocol: as §2, §3

[27] = test system: E. aerogenes; experiment: as above; details: Klebsiella aerogenes, larger panel
Protocol: as §2, §3

[28] = test system: P. aeruginosa ESBL 1; experiment: as above; details: Pseudomonas aeruginosa, ESBL1, larger panel
Protocol: as §2, §3

[29] = test system: P. aeruginosa ESBL 2; experiment: as above; details: Pseudomonas aeruginosa, ESBL2, larger panel
Protocol: as §2, §3

[30] = test system: E. faecalis; experiment: as above; details: Enterococcus faecalis, larger panel
Protocol: as §2, §3

[31] = test system: P. mirabilis; experiment: as above; details: Proteus mirabilis, larger panel
Protocol: as §2, §3

[32] = test system: S. epidermidis; experiment: as above; details: Staphylococcus epidermidis, larger panel
Protocol: as §2, §3

[33] = test system: P. vulgaris; experiment: as above; details: Proteus vulgaris, larger panel
Protocol: as §2, §3

[34] = test system: E. coli WT-III [marRΔ74bp]; details: fluoroquinolone-resistant mutant; Table 2a
Protocol: as §2, §3

Q: For CC(C)Oc1c(NC(=O)c2ccc(NC(=O)[C@H](CC(N)=O)NC(=O)c3ccc(NC(=O)c4ccc(C#N)cc4)cc3)cc2)ccc(C(=O)Nc2ccc(C(=O)O)cc2)c1O [Compound 44, (S)-4-(4-(4-(4-amino-2-(4-(4-cyanobenzamido)benzamido)-4-oxobutanamido)benzamido)-2-hydroxy-3-isopropoxybenzamido)benzoic acid], which MIC [1] is on record?
A: 0.06 µg/mL (≈ 0.0739 µM)

Q: What about the MIC [2] of the same compound?
A: 0.13 µg/mL (≈ 0.16 µM)

Q: What about the MIC [3] of the same compound?
A: 0.25 µg/mL (≈ 0.308 µM)

Q: What about the MIC [4] of the same compound?
A: 0.5 µg/mL (≈ 0.616 µM)

Q: What about the MIC [5] of the same compound?
A: 0.5 µg/mL (≈ 0.616 µM)

Q: What about the MIC [6] of the same compound?
A: 0.25 µg/mL (≈ 0.308 µM)

Q: And the MIC [7]?
A: 0.13 µg/mL (≈ 0.16 µM)

Q: And the MIC [8]?
A: < 0.03 µg/mL

Q: And the MIC ([9]; large panel, Table 2a)?
A: 0.25 µg/mL (≈ 0.308 µM)

Q: And the MIC ([9]; larger panel, Table 2b)?
A: 0.25 µg/mL (≈ 0.308 µM)

Q: What about the MIC [10] of the same compound?
A: 0.06 µg/mL (≈ 0.0739 µM)

Q: And the MIC [11]?
A: 0.5 µg/mL (≈ 0.616 µM)

Q: What about the MIC [12] of the same compound?
A: 64 µg/mL (≈ 78.8 µM)

Q: And the MIC [13]?
A: 1 µg/mL (≈ 1.23 µM)

Q: And the MIC [14]?
A: 0.5 µg/mL (≈ 0.616 µM)

Q: What about the MIC [15] of the same compound?
A: 2 µg/mL (≈ 2.46 µM)

Q: And the MIC [16]?
A: > 64 µg/mL

Q: And the MIC [17]?
A: > 64 µg/mL

Q: And the MIC [18]?
A: 0.25 µg/mL (≈ 0.308 µM)

Q: What about the MIC [19] of the same compound?
A: 2 µg/mL (≈ 2.46 µM)

Q: What about the MIC [20] of the same compound?
A: 0.25 µg/mL (≈ 0.308 µM)

Q: What about the MIC [21] of the same compound?
A: 1 µg/mL (≈ 1.23 µM)

Q: What about the MIC [22] of the same compound?
A: 0.5 µg/mL (≈ 0.616 µM)

Q: What about the MIC [23] of the same compound?
A: > 64 µg/mL

Q: What about the MIC [24] of the same compound?
A: 0.25 µg/mL (≈ 0.308 µM)

Q: And the MIC [25]?
A: 1 µg/mL (≈ 1.23 µM)

Q: And the MIC [26]?
A: < 0.03 µg/mL

Q: And the MIC [27]?
A: 0.06 µg/mL (≈ 0.0739 µM)

Q: And the MIC [28]?
A: 4 µg/mL (≈ 4.93 µM)

Q: And the MIC [29]?
A: 4 µg/mL (≈ 4.93 µM)

Q: What about the MIC [30] of the same compound?
A: 0.5 µg/mL (≈ 0.616 µM)

Q: And the MIC [31]?
A: > 64 µg/mL

Q: And the MIC [32]?
A: < 0.03 µg/mL

Q: And the MIC [33]?
A: 0.25 µg/mL (≈ 0.308 µM)

Q: And the “MIC E. coli WT-III [marRΔ74bp]” value [34]?
A: 0.25 µg/mL (≈ 0.308 µM)
